This passage reports IC50 results from patent US9718774B2, “Indole carboxamide derivatives as P2X7 receptor antagonist” (ACTELION PHARMACEUTICALS LTD, priority 2012, dated 2017).

Structures can show the parent of a compound that is named as a salt.

The target in this experiment is T1, human recombinant P2X7 receptor (Homo sapiens, UniProt Q99572).
T1 construct: expressed in transfected cells
T1 sequence (Q99572 1-595): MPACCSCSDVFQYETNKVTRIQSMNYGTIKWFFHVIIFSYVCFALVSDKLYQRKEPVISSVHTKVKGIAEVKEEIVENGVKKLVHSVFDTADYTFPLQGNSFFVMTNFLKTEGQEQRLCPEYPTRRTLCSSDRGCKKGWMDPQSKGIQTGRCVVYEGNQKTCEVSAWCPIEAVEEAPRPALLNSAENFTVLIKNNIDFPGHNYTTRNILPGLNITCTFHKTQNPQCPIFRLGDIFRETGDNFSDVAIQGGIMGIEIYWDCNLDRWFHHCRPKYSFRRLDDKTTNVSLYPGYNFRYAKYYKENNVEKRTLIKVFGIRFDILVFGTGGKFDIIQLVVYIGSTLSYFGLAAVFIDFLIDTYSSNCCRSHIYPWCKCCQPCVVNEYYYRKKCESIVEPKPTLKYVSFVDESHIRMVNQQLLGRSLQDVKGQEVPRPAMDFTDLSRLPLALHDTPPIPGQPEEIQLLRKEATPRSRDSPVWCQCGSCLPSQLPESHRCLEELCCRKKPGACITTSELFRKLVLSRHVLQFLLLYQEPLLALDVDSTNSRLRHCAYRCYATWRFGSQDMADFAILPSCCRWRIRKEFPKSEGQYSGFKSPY
Briefly: YO-PRO assay: P2X7 receptor antagonistic activity in HEK cells stably expressing P2X7. Particulars: antagonistic activity with respect to the P2X7 receptor, read-out: IC50. It counts as cell-based. An outline of the steps:
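HEK cells stably transfected with human P2X7 (cloned from blood cDNA) were loaded with 0.5 μM YO-PRO-1. They were exposed to antagonist (10 concentrations, top 10 μM, 1/3 steps, duplicate) together with 250 μM ATP for 90 min, and dye uptake was read by FLIPR at ex 485/em 530. IC50 from maximum fluorescence versus concentration.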
In the case of `O=C(NCC(c1cc(F)cc(F)c1)N1CCOCC1)c1ccc2[nH]ccc2c1Cl` (racemic) [Example 18, rac-4-Chloro-1H-indole-5-carboxylic acid [2-(3,5-difluoro-phenyl)-2-morpholin-4-yl-ethyl]-amide], the IC50 was 19 nM. With `O=C(NCC(c1ccc(Cl)cc1)N1CCOCC1)c1ccc2[nH]ccc2c1Cl` (racemic) [Example 38, rac-4-Chloro-1H-indole-5-carboxylic acid [2-(4-chloro-phenyl)-2-morpholin-4-yl-ethyl]-amide], the IC50 came to 15 nM. As for `CN1CCC(C(CNC(=O)c2ccc3[nH]ccc3c2Cl)c2cccnc2)CC1` (racemic) [Example 21, rac-4-Chloro-1H-indole-5-carboxylic acid [2-(1-methyl-piperidin-4-yl)-2-pyridin-3-yl-ethyl]-amide formic acid salt], the figure is 584 nM. As for `Cc1cnc(C(CNC(=O)c2ccc3[nH]ccc3c2Cl)N2CCCCC2)cn1` (racemic) [Example 60, rac-4-Chloro-1H-indole-5-carboxylic acid [2-(5-methyl-pyrazin-2-yl)-2-piperidin-1-yl-ethyl]-amide], the figure is 232 nM; as for `CC(=O)c1cc(C(=O)NCC(c2cnc(C)nc2)N2CCOCC2)c(Cl)c2cc[nH]c12` (racemic) [Example 102, rac-7-Acetyl-4-chloro-1H-indole-5-carboxylic acid [2-(2-methyl-pyrimidin-5-yl)-2-morpholin-4-yl-ethyl]-amide], 33 nM. Regarding `Cc1ncc(C(CNC(=O)c2cc(C)c3[nH]ccc3c2Cl)N2CCOCC2)cn1` (single isomer, unassigned) [Example 97, 4-Chloro-7-methyl-1H-indole-5-carboxylic acid [2-(2-methyl-pyrimidin-5-yl)-2-morpholin-4-yl-ethyl]-amide], the IC50 is 10 nM. As for `O=C(NCC(c1ccc(Oc2ccccc2)cc1)N1CCOCC1)c1ccc2[nH]ccc2c1Cl` (racemic) [Example 58, rac-4-Chloro-1H-indole-5-carboxylic acid [2-morpholin-4-yl-2-(4-phenoxy-phenyl)-ethyl]-amide], the figure is 102 nM; as for `CC(=O)N1CCC(C(CNC(=O)c2ccc3[nH]ccc3c2Cl)c2cccnc2)CC1` (racemic) [Example 22, rac-4-Chloro-1H-indole-5-carboxylic acid [2-(1-acetyl-piperidin-4-yl)-2-pyridin-3-yl-ethyl]-amide], 126 nM; as for `O=C(NCC(c1ccc(Oc2ccccc2)cc1)N1CCCCC1)c1ccc2[nH]ccc2c1Cl` (racemic) [Example 57, rac-4-Chloro-1H-indole-5-carboxylic acid [2-(4-phenoxy-phenyl)-2-piperidin-1-yl-ethyl]-amide], 187 nM. The figure for `Cc1ncc(C(CNC(=O)c2ccc3[nH]ccc3c2Cl)N2CC3CC2CO3)cn1` (centres unmarked) [Example 68, 4-Chloro-1H-indole-5-carboxylic acid [2-(2-methyl-pyrimidin-5-yl)-2-(2-oxa-5-aza-bicyclo[2.2.1]hept-5-yl)-ethyl]-amide] is 2060 nM; for `CCC(CC)OC(CNC(=O)c1ccc2[nH]ccc2c1Cl)c1cnc(C)nc1` (racemic) [Example 71, rac-4-Chloro-1H-indole-5-carboxylic acid [2-(1-ethyl-propoxy)-2-(2-methyl-pyrimidin-5-yl)-ethyl]-amide] it is 22 nM.

For the compound `Cc1ncc(C(CNC(=O)c2ccc3[nH]ccc3c2Cl)OC2CCOCC2)cn1` (racemic) [Example 70, rac-4-Chloro-1H-indole-5-carboxylic acid [2-(2-methyl-pyrimidin-5-yl)-2-(tetrahydro-pyran-4-yloxy)-ethyl]-amide], the 50% inhibitory concentration (IC50) was 91 nM. As to `O=C(NCC(c1ccc(Cl)cc1Cl)N1CCOCC1)c1ccc2[nH]ccc2c1Cl` (racemic) [Example 39, rac-4-Chloro-1H-indole-5-carboxylic acid [2-(2,4-dichloro-phenyl)-2-morpholin-4-yl-ethyl]-amide], the IC50 was 455 nM. As for `O=C(NCC(c1ccc(F)cc1F)N1CCOCC1)c1ccc2[nH]ccc2c1Cl` (racemic) [Example 34, rac-4-Chloro-1H-indole-5-carboxylic acid [2-(2,4-difluoro-phenyl)-2-morpholin-4-yl-ethyl]-amide], the figure is 61 nM.

Regarding `Cc1ncc(C(CNC(=O)c2ccc3[nH]ccc3c2Cl)N2CCCCCC2)cn1` (racemic) [Example 80, rac-4-Chloro-1H-indole-5-carboxylic acid [2-azepan-1-yl-2-(2-methyl-pyrimidin-5-yl)-ethyl]-amide], the IC50 worked out at 25 nM. As for `O=C(NCC(c1ccc(Cl)nc1)N1CCC(F)(F)CC1)c1ccc2[nH]ccc2c1Cl` (racemic) [Example 2, rac-4-Chloro-1H-indole-5-carboxylic acid [2-(6-chloro-pyridin-3-yl)-2-(4,4-difluoro-piperidin-1-yl)-ethyl]-amide], the figure is 4.3 nM; as for `Cc1ncc(C(CNC(=O)c2ccc3[nH]ccc3c2Cl)N2CCC(F)CC2)cn1` (racemic) [Example 78, rac-4-Chloro-1H-indole-5-carboxylic acid [2-(4-fluoro-piperidin-1-yl)-2-(2-methyl-pyrimidin-5-yl)-ethyl]-amide], 12 nM; as for `O=C(NCC(c1ccc(Cl)nc1)N1CCOCC1)c1ccc2[nH]ccc2c1Cl` (racemic) [Example 24, rac-4-Chloro-1H-indole-5-carboxylic acid [2-(6-chloro-pyridin-3-yl)-2-morpholin-4-yl-ethyl]-amide], 4.7 nM. As for `CCc1cc(C(=O)NCC(c2cnc(C)nc2)N2CCOCC2)c(Cl)c2cc[nH]c12` (racemic) [Example 107, rac-4-Chloro-7-ethyl-1H-indole-5-carboxylic acid [2-(2-methyl-pyrimidin-5-yl)-2-morpholin-4-yl-ethyl]-amide], the figure is 15 nM; as for `O=C(NCC(c1ccc(C(F)(F)F)cc1)N1CCOCC1)c1ccc2[nH]ccc2c1Cl` (racemic) [Example 49, rac-4-Chloro-1H-indole-5-carboxylic acid [2-morpholin-4-yl-2-(4-trifluoromethyl-phenyl)-ethyl]-amide], 34 nM; as for `Cn1cc(C(CNC(=O)c2ccc3[nH]ccc3c2Cl)N2CCCCC2)cn1` (racemic) [Example 29, rac-4-Chloro-1H-indole-5-carboxylic acid [2-(1-methyl-1H-pyrazol-4-yl)-2-piperidin-1-yl-ethyl]-amide], 161 nM. As for `Cc1ncc(C(CNC(=O)c2ccc3[nH]ccc3c2C)N2CCOCC2)cn1` (single isomer, unassigned) [Example 106, 4-Methyl-1H-indole-5-carboxylic acid [2-(2-methyl-pyrimidin-5-yl)-2-morpholin-4-yl-ethyl]-amide], the figure is 25 nM; as for `Cc1ncc(C(CNC(=O)c2cc(CC(C)C)c3[nH]ccc3c2Cl)N2CCOCC2)cn1` (racemic) [Example 98, rac-4-Chloro-7-isobutyl-1H-indole-5-carboxylic acid [2-(2-methyl-pyrimidin-5-yl)-2-morpholin-4-yl-ethyl]-amide], 10 nM.

Take `O=C(NCC(c1cccc(F)c1)N1CCOCC1)c1ccc2[nH]ccc2c1Cl` (racemic) [Example 37, rac-4-Chloro-1H-indole-5-carboxylic acid [2-(3-fluoro-phenyl)-2-morpholin-4-yl-ethyl]-amide]: the IC50 amounted to 32 nM. The figure for `O=C(NCC(c1ccc(Cl)cc1F)N1CCOCC1)c1ccc2[nH]ccc2c1Cl` (racemic) [Example 40, rac-4-Chloro-1H-indole-5-carboxylic acid [2-(4-chloro-2-fluoro-phenyl)-2-morpholin-4-yl-ethyl]-amide] is 73 nM; for `Cc1ncc(C(CNC(=O)c2ccc3[nH]ccc3c2Cl)OC2CCCC2)cn1` (racemic) [Example 52, rac-4-Chloro-1H-indole-5-carboxylic acid [2-cyclopentyloxy-2-(2-methyl-pyrimidin-5-yl)-ethyl]-amide] it is 32 nM; for `O=C(NCC(c1cncs1)N1CCOCC1)c1ccc2[nH]ccc2c1Cl` (racemic) [Example 64, rac-4-Chloro-1H-indole-5-carboxylic acid (2-morpholin-4-yl-2-thiazol-5-yl-ethyl)-amide] it is 53 nM.

For `Cc1ncc(C(CNC(=O)c2ccc3[nH]ccc3c2Cl)N2CCN(C(=O)OC(C)(C)C)CC2)cn1` (racemic) [Example 89, rac-4-[2-[(4-Chloro-1H-indole-5-carbonyl)-amino]-1-(2-methyl-pyrimidin-5-yl)-ethyl]-piperazine-1-carboxylic acid tert-butyl ester], the IC50 turned out to be 277 nM. The figure for `Cc1ncc(C(CNC(=O)c2ccc3[nH]ccc3c2Cl)NC2CCCC2)cn1` (racemic) [Example 83, rac-4-Chloro-1H-indole-5-carboxylic acid [2-cyclopentylamino-2-(2-methyl-pyrimidin-5-yl)-ethyl]-amide] is 162 nM.
